According to ChEMBL document CHEMBL3091407, “Synthesis of Novel 3,5-Disubstituted-2-oxindole Derivatives As Antitumor Agents against Human Nonsmall Cell Lung Cancer” (ACS Med Chem Lett, 2013):
Active and inactive are the calls of the source. No cut-off for these calls is given here.

What was measured:
A549 [1] = assay: Inhibition of Akt phosphorylation at Thr308 site in human A549 cells at IC50 after 72 hrs by ELISA; format: cell-based
A549 [2] = assay: Inhibition of Akt phosphorylation at Ser473 site in human A549 cells at IC50 after 72 hrs by ELISA; format: cell-based
A549 [3] = assay: Cell cycle arrest in human A549 cells assessed as decrease in G1 cells at IC50 after 24 hrs followed by compound washout by propidium iodide staining-based FACS analysis; format: functional; parameters: scale not given: the % may be the effect or the level left
A549 [4] = assay: Induction of apoptosis in human A549 cells assessed as nuclear fragmentation at IC50 by fluorescence microscopy; format: functional, cell-based
A549 [5] = assay: Cell cycle arrest in human A549 cells assessed as decrease in S cells at IC50 after 24 hrs followed by compound washout by propidium iodide staining-based FACS analysis; format: functional; parameters: scale not given: the % may be the effect or the level left
A549 [6] = assay: Cytotoxicity against human A549 cells at 0.01 to 100 uM by haemocytometry; format: functional, cell-based; settings: TDE = time-dependent effect
A549 [7] = assay: Induction of apoptosis in human A549 cells assessed as cell shrinkage at IC50 by fluorescence microscopy; format: functional, cell-based
A549 [8] = assay: Induction of apoptosis in human A549 cells assessed as cellular rupture into debris at IC50 by fluorescence microscopy; format: functional, cell-based
A549 [9] = assay: Cytotoxicity against human A549 cells after 24 to 72 hrs by haemocytometry; format: functional, cell-based
A549 [10] = assay: Cell cycle arrest in human A549 cells assessed as decrease in G2 cells at IC50 after 24 hrs followed by compound washout by propidium iodide staining-based FACS analysis; format: functional; parameters: scale not given: the % may be the effect or the level left
A549 [11] = assay: Induction of apoptosis in human A549 cells assessed as apoptotic index at IC50 by fluorescence microscopy relative to control; format: functional
A549 [12] = assay: Ratio of perifosine IC50 to compound IC50 for human A549 cells; format: functional
A549 [13] = assay: Ratio of sunitinib IC50 to compound IC50 for human A549 cells; format: functional
A549 [14] = assay: Inhibition of Akt phosphorylation in human A549 cells assessed as inhibition of FoxO3a phosphorylation at Thr32 at 10 uM after 3 hrs followed by 10 mins incubation in 10% FBS by Western blotting analysis; format: cell-based
A549 [15] = assay: Inhibition of Akt phosphorylation in human A549 cells assessed as inhibition of FoxO1 phosphorylation at Thr24 at 10 uM after 3 hrs followed by 10 mins incubation in 10% FBS by Western blotting analysis; format: cell-based
MDA-MB-231 [16] = assay: Cytotoxicity against human MDA-MB-231 cells at 1 to 10 uM after 72 hrs by haemocytometry; format: functional, cell-based
A549 [17] = assay: Inhibition of Akt phosphorylation at Thr308 site in human A549 cells at 10 uM after 3 hrs followed by 10 mins incubation in 10% FBS by Western blotting analysis; format: cell-based
[18] = molecular target: Receptor tyrosine-protein kinase erbB-2 (Homo sapiens) (UniProt P04626); assay: Inhibition of Her2 phosphorylation at Tyr1221/1222 in human A549 cells at 10 uM after 3 hrs followed by 10 mins incubation in 10% FBS by Western blotting analysis; format: cell-based
[19] = Cytotoxicity against human HCC827 cells after 24 to 72 hrs by haemocytometry; format: functional, cell-based
[20] = molecular target: Epidermal growth factor receptor (Homo sapiens) (UniProt P00533); assay: Inhibition of EGFR phosphorylation at […] in human A549 cells at 10 uM after 3 hrs followed by 10 mins incubation in 10% FBS by Western blotting analysis; format: cell-based
MDA-MB-231 [21] = assay: Selectivity for human HCC827 cells over human MDA-MB-231 cells; format: functional

Epidermal growth factor receptor (Homo sapiens), sequence (P00533 whole entry): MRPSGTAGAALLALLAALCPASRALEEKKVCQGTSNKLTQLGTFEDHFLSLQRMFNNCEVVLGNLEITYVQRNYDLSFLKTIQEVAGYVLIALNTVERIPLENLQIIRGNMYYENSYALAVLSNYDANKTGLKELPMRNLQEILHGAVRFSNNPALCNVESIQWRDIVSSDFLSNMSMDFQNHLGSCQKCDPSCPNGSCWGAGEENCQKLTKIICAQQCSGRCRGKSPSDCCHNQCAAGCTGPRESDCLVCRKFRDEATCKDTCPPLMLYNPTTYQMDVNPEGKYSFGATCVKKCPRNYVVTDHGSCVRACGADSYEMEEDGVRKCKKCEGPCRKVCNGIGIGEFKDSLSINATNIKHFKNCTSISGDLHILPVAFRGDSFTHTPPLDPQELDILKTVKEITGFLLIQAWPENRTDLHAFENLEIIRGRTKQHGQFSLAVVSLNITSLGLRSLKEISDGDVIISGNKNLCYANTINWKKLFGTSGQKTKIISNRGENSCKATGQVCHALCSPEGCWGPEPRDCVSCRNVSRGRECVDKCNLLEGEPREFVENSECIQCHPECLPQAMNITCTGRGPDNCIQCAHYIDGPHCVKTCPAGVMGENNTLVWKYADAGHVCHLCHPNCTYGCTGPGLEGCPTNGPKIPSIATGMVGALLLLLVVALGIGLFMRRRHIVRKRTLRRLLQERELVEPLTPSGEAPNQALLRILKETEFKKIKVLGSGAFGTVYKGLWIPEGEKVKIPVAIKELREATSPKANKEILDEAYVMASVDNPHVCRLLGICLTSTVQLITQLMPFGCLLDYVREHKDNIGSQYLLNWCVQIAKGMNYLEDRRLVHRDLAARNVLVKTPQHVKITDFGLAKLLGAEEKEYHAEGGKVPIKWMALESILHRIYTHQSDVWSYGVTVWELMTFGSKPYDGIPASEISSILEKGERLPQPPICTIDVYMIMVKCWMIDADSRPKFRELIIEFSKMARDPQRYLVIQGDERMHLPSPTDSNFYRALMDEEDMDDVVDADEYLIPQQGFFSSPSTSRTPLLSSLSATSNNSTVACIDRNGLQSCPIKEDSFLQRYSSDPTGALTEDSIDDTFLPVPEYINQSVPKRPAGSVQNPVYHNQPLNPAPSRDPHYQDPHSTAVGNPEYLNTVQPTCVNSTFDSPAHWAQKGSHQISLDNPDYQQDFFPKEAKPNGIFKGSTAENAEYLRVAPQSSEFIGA
Receptor tyrosine-protein kinase erbB-2 (Homo sapiens), sequence (P04626 whole entry): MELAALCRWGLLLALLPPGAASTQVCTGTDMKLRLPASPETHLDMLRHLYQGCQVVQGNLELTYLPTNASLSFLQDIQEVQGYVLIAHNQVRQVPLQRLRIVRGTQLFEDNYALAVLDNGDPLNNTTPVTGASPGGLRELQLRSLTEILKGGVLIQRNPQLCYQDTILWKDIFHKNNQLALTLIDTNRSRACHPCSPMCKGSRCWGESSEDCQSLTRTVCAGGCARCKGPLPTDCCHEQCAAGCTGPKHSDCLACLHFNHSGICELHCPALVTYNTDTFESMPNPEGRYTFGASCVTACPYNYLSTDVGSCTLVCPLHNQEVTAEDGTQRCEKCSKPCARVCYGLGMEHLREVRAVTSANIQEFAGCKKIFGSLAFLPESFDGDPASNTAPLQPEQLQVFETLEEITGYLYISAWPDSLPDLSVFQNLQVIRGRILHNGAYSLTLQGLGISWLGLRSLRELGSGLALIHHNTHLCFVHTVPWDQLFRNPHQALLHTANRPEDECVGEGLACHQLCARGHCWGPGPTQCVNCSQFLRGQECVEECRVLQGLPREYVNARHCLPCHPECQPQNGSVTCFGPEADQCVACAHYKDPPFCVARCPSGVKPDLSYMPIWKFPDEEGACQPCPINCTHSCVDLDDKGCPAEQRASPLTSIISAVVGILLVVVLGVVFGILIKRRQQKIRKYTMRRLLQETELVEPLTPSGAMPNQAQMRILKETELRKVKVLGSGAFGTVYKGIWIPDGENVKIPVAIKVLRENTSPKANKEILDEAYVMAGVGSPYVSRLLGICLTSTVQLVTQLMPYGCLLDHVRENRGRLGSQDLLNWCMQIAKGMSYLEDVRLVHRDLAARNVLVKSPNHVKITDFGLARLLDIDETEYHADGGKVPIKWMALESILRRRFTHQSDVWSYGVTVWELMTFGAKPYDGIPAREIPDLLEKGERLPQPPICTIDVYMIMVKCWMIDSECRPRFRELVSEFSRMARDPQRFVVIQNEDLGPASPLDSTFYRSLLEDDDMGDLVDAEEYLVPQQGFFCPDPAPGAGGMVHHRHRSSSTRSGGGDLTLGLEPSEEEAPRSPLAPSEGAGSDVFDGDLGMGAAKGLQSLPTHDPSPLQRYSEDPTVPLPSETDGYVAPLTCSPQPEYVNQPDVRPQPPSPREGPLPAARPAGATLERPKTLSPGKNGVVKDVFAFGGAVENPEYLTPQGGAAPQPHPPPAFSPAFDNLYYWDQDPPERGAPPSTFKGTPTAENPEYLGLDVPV

Structure (SMILES)	inhibition (A549 [1]) [%]	inhibition (A549 [2]) [%]	Activity (A549 [3]) [%]	Activity (A549 [4])	Activity (A549 [5]) [%]	Activity (A549 [6])	Activity (A549 [7])	Activity (A549 [8])	Activity (A549 [9])	IC50 (A549 [9]) [nM]	Activity (A549 [10]) [%]	Activity (A549 [11]) [%]	Ratio IC50 (A549 [12])	Ratio IC50 (A549 [13])	other results
COc1cc2c(cc1OC)CN(CC(=O)Nc1ccc3c(c1)/C(=C\c1ccccn1)C(=O)N3)CC2	20	20	1.06	Active	-2.75	tde	Active	Active	Dose-dependent effect	20000	1.69	–	–	–	–
COc1cc2c(cc1OC)CN(CC(=O)Nc1ccc3c(c1)CC(=O)N3)CC2	20	20	19.24	Active	-4.99	tde	Active	Active	Dose-dependent effect	16200	-14.25	12	–	–	–
COc1cc2c(cc1OC)CN(CC(=O)Nc1ccc3c(c1)/C(=C/c1cnc[nH]1)C(=O)N3)CC2	20	20	-0.1	Active	-0.51	tde	Active	Active	Dose-dependent effect	2190	-0.61	–	2	2.5	–
COc1cc2c(cc1OC)CN(CC(=O)Nc1ccc3c(c1)/C(=C/c1cccs1)C(=O)N3)CC2	20	20	21.04	Active	-10.23	tde	Active	Active	Dose-dependent effect	660	-11.2	24	2	2.5	inhibition (A549 [14]): Active; inhibition (A549 [15]): Active; Activity (MDA-MB-231 [16]): inactive; inhibition (A549 [17]): Active; inhibition [18]: inactive; IC50 [19]: 45 nM; inhibition [20]: inactive
COc1cc2ncnc(Nc3ccc(F)c(Cl)c3)c2cc1OCCCN1CCOCC1 [GEFITINIB]	–	–	–	–	–	–	–	–	–	–	–	–	–	–	Selectivity ratio (MDA-MB-231 [21]): 1700
CCCCCCCCCCCCCCCCCCOP(=O)([O-])OC1CC[N+](C)(C)CC1 [PERIFOSINE]	–	–	18.56	–	-4.05	tde	–	–	Dose-dependent effect	4170	-14.51	32	–	–	–
COc1cc2c(cc1OC)CN(CC(=O)Nc1ccc3c(c1)/C(=C\c1nccn1C)C(=O)N3)CC2	20	20	-0.85	Active	1.33	tde	Active	Active	Dose-dependent effect	2750	-0.48	–	2	2.5	inhibition (A549 [14]): Active; inhibition (A549 [15]): Active; Activity (MDA-MB-231 [16]): inactive; inhibition (A549 [17]): Active; inhibition [18]: inactive; inhibition [20]: inactive
